Active and inactive are the calls of the source. The calls are words filed in the database; no cut-off is given here.
Legend:
[1] = Stability in rat liver microsomes assessed as half life; assay type: ADME, Microsome
[2] = test system: Protein cereblon/Receptor-type tyrosine-protein kinase FLT3 (Homo sapiens), P36888+Q96SW2 [UNDEFINED MUTATION]; experiment: (§1) PROTAC activity at CRBN/FLT3-ITD mutant in human MV4-11 cells assessed as protein degradation by Western blot analysis; assay type: cell-based
Protein cereblon/Receptor-type tyrosine-protein kinase FLT3 (Homo sapiens), P36888+Q96SW2 [UNDEFINED MUTATION], sequence (P36888 whole entry, looked up, stated change not applied): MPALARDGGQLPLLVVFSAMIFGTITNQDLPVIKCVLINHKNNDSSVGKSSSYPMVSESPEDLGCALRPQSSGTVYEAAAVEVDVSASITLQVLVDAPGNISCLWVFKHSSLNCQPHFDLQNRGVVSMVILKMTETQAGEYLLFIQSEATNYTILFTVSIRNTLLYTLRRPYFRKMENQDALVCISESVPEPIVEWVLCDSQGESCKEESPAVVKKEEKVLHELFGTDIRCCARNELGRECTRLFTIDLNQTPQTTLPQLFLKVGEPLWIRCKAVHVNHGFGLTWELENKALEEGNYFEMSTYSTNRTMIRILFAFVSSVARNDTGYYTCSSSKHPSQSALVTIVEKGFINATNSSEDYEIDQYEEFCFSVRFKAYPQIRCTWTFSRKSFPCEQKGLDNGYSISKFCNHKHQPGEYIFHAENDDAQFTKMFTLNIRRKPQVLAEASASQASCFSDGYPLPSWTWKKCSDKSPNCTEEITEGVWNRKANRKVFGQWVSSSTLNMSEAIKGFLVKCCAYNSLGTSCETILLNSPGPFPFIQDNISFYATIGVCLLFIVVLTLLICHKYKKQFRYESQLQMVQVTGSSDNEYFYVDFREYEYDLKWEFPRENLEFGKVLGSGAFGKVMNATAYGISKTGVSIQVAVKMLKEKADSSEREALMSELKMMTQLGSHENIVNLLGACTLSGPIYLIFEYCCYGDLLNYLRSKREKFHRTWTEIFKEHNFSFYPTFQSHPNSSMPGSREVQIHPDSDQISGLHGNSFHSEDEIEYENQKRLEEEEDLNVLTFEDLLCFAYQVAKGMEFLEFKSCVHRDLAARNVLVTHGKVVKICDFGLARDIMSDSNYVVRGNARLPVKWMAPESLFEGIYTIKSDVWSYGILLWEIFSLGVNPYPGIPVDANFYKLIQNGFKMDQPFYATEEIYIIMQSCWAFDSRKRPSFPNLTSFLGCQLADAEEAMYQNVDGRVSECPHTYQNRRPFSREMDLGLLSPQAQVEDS
Protein cereblon/Receptor-type tyrosine-protein kinase FLT3 (Homo sapiens), P36888+Q96SW2 [UNDEFINED MUTATION], sequence (Q96SW2 whole entry, looked up, stated change not applied): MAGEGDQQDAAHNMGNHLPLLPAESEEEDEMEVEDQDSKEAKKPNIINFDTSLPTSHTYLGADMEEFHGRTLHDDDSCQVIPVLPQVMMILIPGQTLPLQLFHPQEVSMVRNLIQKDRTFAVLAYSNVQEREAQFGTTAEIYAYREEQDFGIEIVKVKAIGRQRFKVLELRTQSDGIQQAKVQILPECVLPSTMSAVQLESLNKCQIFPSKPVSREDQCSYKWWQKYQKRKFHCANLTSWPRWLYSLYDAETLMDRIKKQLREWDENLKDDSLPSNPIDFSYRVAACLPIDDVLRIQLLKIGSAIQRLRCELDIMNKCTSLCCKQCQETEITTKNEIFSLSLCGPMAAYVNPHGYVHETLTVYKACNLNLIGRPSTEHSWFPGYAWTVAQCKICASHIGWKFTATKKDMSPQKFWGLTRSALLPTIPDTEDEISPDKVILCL

[3] = target: Protein cereblon/Receptor-type tyrosine-protein kinase FLT3 (Homo sapiens, UniProt P36888+Q96SW2); experiment: as §1; assay type: cell-based
Protein cereblon/Receptor-type tyrosine-protein kinase FLT3, sequence (P36888 whole entry, looked up, stated change not applied): as the sequence (P36888 whole entry, looked up, stated change not applied) above
Protein cereblon/Receptor-type tyrosine-protein kinase FLT3, sequence (Q96SW2 whole entry, looked up, stated change not applied): as the sequence (Q96SW2 whole entry, looked up, stated change not applied) above

MV4-11 [4] = experiment: Antitumor activity against human MV4-11 cells expressing luciferase xenografted in NSG mouse assessed as increase in animal survival at 2.5 mg/kg, po administered daily for 3 weeks and measured for 58 days; assay type: functional, organism-based; details: time 58.0 day
[5] = test system: Protein cereblon/Receptor-type tyrosine-protein kinase FLT3 (Homo sapiens), P36888+Q96SW2 [UNDEFINED MUTATION]; experiment: PROTAC activity at CRBN/FLT3-ITD mutant in membrane of human MV4-11 cells assessed as protein degradation at 100 nM measured after 24 hrs by immunofluorescence analysis
[6] = test system: Protein cereblon/Receptor-type tyrosine-protein kinase FLT3 (Homo sapiens), P36888+Q96SW2 [UNDEFINED MUTATION]; experiment: PROTAC activity at CRBN/FLT3-ITD mutant in human MV4-11 cells assessed as protein degradation at 100 nM incubated for 24 hrs by Western blot analysis; assay type: cell-based
BaF3 [7] = experiment: Antiproliferative activity against mouse Ba/F3 cells expressing FLT3-ITD F691L mutant incubated for 48 hrs by CCK8 assay; assay type: functional, cell-based; details: BaF3, 48 h
[8] = test system: Protein cereblon/Receptor-type tyrosine-protein kinase FLT3 (Homo sapiens), P36888+Q96SW2 [UNDEFINED MUTATION]; experiment: PROTAC activity at CRBN/FLT3-ITD mutant in human MOLM-13 cells assessed as protein degradation at 100 nM incubated for 8 hrs in presence of bortezomib by Western blot analysis; assay type: cell-based
[9] = test system: Protein cereblon/Receptor-type tyrosine-protein kinase FLT3 (Homo sapiens), P36888+Q96SW2 [UNDEFINED MUTATION]; experiment: PROTAC activity at CRBN/FLT3-ITD mutant in human MOLM-13 cells assessed as decrease in STAT5 level incubated for 12 hrs by Western blot analysis; assay type: cell-based; details: dose <= 20.0 nM
MV4-11 [10] = experiment: Antitumor activity against human MV4-11 cells xenografted in nu/nu mouse at 5 mg/kg, po administered daily for 2 weeks relative to control; assay type: functional; details: MV4-11, 336 h, read-out: TGI
MV4-11 [11] = experiment: Antitumor activity against human MV4-11 cells xenografted in nu/nu mouse at 1.25 mg/kg, po administered daily for 2 weeks relative to control; assay type: functional; details: MV4-11, 336 h, read-out: TGI
[12] = test system: Protein cereblon/Receptor-type tyrosine-protein kinase FLT3 (Homo sapiens), P36888+Q96SW2 [UNDEFINED MUTATION]; experiment: PROTAC activity at CRBN/FLT3-ITD mutant in human MV4-11 cells assessed as protein degradation incubated for 12 hrs by Western blot analysis; assay type: cell-based; details: dose <= 20.0 nM
[13] = Antiproliferative activity against human HL-60 cells expressing wild-type FLT3 incubated for 48 hrs by CCK8 assay; assay type: toxicity, cell-based
MOLM-13 = experiment: Induction of apoptosis in human MOLM-13 cells incubated for 24 hrs by Annexin V-FITC/PI staining based flow cytometry; assay type: functional, cell-based; details: dose 25-100 nM
Cytochrome P450 2B6 = target: T1, Cytochrome P450 2B6 (Homo sapiens, UniProt P20813); experiment: Inhibition of CYP2B6 (unknown origin); assay type: ADME
T1 sequence (P20813 whole entry): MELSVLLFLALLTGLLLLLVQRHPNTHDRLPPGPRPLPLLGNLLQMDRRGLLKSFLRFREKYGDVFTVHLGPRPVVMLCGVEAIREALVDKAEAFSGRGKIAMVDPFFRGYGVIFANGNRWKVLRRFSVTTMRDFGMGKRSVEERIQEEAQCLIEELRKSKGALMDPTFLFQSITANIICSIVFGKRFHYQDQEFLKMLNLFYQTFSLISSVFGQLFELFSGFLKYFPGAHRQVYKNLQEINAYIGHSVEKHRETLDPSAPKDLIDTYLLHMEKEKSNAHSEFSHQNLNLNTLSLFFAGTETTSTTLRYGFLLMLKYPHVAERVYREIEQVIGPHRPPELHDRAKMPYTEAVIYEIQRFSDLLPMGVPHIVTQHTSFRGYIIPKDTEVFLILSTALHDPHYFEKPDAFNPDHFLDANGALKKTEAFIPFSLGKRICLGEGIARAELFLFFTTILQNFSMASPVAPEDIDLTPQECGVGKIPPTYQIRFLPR

[14] = AUC (0 to t) in Sprague-Dawley rat at 1 mg/kg, iv measured for 24 hrs by LC-MS/MS analysis; assay type: ADME, organism-based; details: in vivo
[15] = Stability in human liver microsomes assessed as half life; assay type: ADME, Microsome
[16] = Antiproliferative activity against human U-937 cells expressing wild-type FLT3 incubated for 48 hrs by CCK8 assay; assay type: toxicity, cell-based
[17] = test system: Protein cereblon/Receptor-type tyrosine-protein kinase FLT3 (Homo sapiens), P36888+Q96SW2 [UNDEFINED MUTATION]; experiment: PROTAC activity at CRBN/FLT3-ITD mutant in human MV4-11 cells assessed as decrease in ERK level at 20 nM by Western blot analysis; assay type: cell-based; details: time <= 12.0 hrs, TDE = time-dependent effect
Mus musculus = experiment: Anti-leukemic activity in NSG mouse xenografted with human MV4-11 cells expressing luciferase assessed as decrease in CD45+/CD33+ cells proportion in peripheral blood at 1.25 to 10 mg/kg, po administered daily for 3 weeks; assay type: functional, organism-based; details: dose 1.25-10 mg/kg
MV4-11 [18] = experiment: Antitumor activity against human MV4-11 cells xenografted in nu/nu mouse assessed as decrease in Ki67 level at 1.25 to 10 mg/kg, po administered daily for 2 weeks by IHC analysis; assay type: functional, organism-based; details: dose 1.25-10 mg/kg
[19] = Antiproliferative activity against human PBMC cells at 30 to 1000 nM incubated for 48 hrs by CCK8 assay; assay type: toxicity, cell-based; details: 1 µM, dose 30-1000 nM
[20] = Half life in Sprague-Dawley rat at 1 mg/kg, iv measured for 24 hrs by LC-MS/MS analysis; assay type: ADME, organism-based; details: in vivo
[21] = Toxicity in nu/nu mouse xenografted with human MV4-11 cells assessed as damage in liver at 1.25 to 10 mg/kg, po administered daily for 2 weeks by H and E staining based analysis; assay type: organism-based; details: in vivo, 336 h, dose 1.25-10 mg/kg
[22] = test system: Protein cereblon/Receptor-type tyrosine-protein kinase FLT3 (Homo sapiens), P36888+Q96SW2 [UNDEFINED MUTATION]; experiment: PROTAC activity at CRBN/FLT3-ITD mutant in human MV4-11 cells assessed as decrease in S6K level incubated for 12 hrs by Western blot analysis; assay type: cell-based; details: dose <= 20.0 nM
[23] = Stability in mouse liver microsomes assessed as hepatic clearance; assay type: ADME, Microsome
MV4-11 [24] = experiment: Antitumor activity against human MV4-11 cells xenografted in nu/nu mouse at 2.5 mg/kg, po administered daily for 2 weeks relative to control; assay type: functional; details: MV4-11, 336 h, read-out: TGI
[25] = Stability in monkey liver microsomes assessed as hepatic clearance; assay type: ADME, Microsome; details: chlorocebus aethiops
[26] = Stability in human liver microsomes assessed as hepatic clearance; assay type: ADME, Microsome
MV4-11 [27] = experiment: Induction of cell cycle arrest at G1 phase in human MV4-11 cells at 50 nM incubated for 24 hrs by PI/RNase staining based flow cytometry relative to control; assay type: functional
[28] = Toxicity in nu/nu mouse xenografted with human MV4-11 cells assessed as damage in heart at 1.25 to 10 mg/kg, po administered daily for 2 weeks by H and E staining based analysis; assay type: organism-based; details: in vivo, 336 h, dose 1.25-10 mg/kg
BaF3 [29] = experiment: Antiproliferative activity against mouse Ba/F3 cells expressing FLT3-ITD Y842H mutant incubated for 48 hrs by CCK8 assay; assay type: functional, cell-based; details: BaF3, 48 h
MV4-11 [30] = experiment: Induction of proapoptosis in human MV4-11 cells xenografted in nu/nu mouse assessed as increase in cleaved caspase-3 level at 1.25 to 10 mg/kg, po administered daily for 2 weeks; assay type: functional, organism-based; details: dose 1.25-10 mg/kg

Structure (SMILES): Cc1c(NC(=O)CN2CCN(CC3CCN(c4ccc5c(c4)C(=O)N(C4CCC(=O)NC4=O)C5=O)CC3)CC2)c[nH]c1/C=C1\C(=O)Nc2ccc(F)cc21 (stereo not drawn)
- half-life [1]: 1.54 h
- Activity [2]: Dose-Dependent Effect
- DC50 [3]: 7.4 nM
- Activity (MV4-11 [4]): Active
- Activity [5]: Active
- Activity [6]: Active
- IC50 (BaF3 [7]): 66.2 nM
- Activity [8]: inactive
- Activity [9]: Dose-Dependent Effect
- inhibition in vivo at 5 mg/kg (MV4-11 [10]): 97.5%
- inhibition in vivo at 1.25 mg/kg (MV4-11 [11]): 51.4%
- Activity [12]: Dose-Dependent Effect
- IC50 at 48 h [13]: > 40000 nM
- Activity (MOLM-13): Dose-Dependent Effect
- IC50 (Cytochrome P450 2B6): > 50000 nM
- AUC(0-t) at 24 h [14]: 2770 ng·h/mL
- half-life [15]: 1.16 h
- IC50 at 48 h [16]: > 40000 nM
- Activity [17]: Tde
- Activity (Mus musculus): Active
- Activity (MV4-11 [18]): Active
- Activity [19]: Non-Toxic
- half-life [20]: 6.5 h
- Activity [21]: Non-Toxic
- Activity [22]: Dose-Dependent Effect
- CLhep predicted [23]: 45.7 mL/min/kg
- inhibition in vivo at 2.5 mg/kg (MV4-11 [24]): 84.4%
- CLhep predicted [25]: 23.4 mL/min/kg
- CLhep predicted [26]: 10.9 mL/min/kg
- Activity (MV4-11 [27]): 89.2%
- Activity [28]: Non-Toxic
- IC50 (BaF3 [29]): 46.7 nM
- Activity (MV4-11 [30]): Active

— ChEMBL document CHEMBL5543162, “Discovery of a Novel Orally Bioavailable FLT3-PROTAC Degrader for Efficient Treatment of Acute Myeloid Leukemia and Overcoming Resistance of FLT3 Inhibitors” (J Med Chem, 2024)
